Assay results as given in US9212169B2, “Benzimidazole derivative and use thereof” (HYOGO COLLEGE OF MEDICINE, priority 2012, dated 2015).
Like-named read-outs stand apart in the source and are kept apart here.

Legend:
[1] = target: T1, silkworm recombinant PCA-1 (Homo sapiens, UniProt Q96Q83); assay: Evaluation of PCA-1 inhibitory activity (demethylation of 3-methyl cytosine-containing oligo DNA, real-time PCR); format: biochemical; conditions: 37° C., 1 hr; for inhibition at 1 µM: test compound 1 μM; for inhibition at 10 µM: test compound 10 μM
T1 construct: made in house; host or cells: silkworm
T1 sequence (Q96Q83 1-286): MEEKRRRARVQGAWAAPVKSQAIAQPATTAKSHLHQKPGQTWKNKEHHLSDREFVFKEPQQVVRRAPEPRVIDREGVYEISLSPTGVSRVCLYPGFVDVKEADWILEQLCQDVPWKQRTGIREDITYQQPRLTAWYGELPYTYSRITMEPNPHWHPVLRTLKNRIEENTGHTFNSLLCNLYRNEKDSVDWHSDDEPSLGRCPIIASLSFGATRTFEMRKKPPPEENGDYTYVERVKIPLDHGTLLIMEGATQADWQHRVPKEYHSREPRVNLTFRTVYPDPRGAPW
Procedure: To an enzyme reaction solution (50 mM trishydrochloric acid buffer (pH 8.0), 2 mM ascorbic acid, 100 μM oxoglutaric acid, 40 μM ferric sulfate) containing 80 fmol 3-methyl cytosine-containing oligo DNA as a substrate were added a test compound (10 μM, 1 μM) and 4 ng silkworm recombinant PCA-1, and the mixture was incubated at 37° C. for 1 hr. After completion of the reaction, the enzyme reaction solution was 20-fold diluted with water to quench the reaction. Using 2 μL thereof, real-time PCR (Bio-Rad iQ SYBR Green Supermix) was performed in a 20 μL reaction system. The analytical curve was formed using a dilution series of the non-methylated oligoDNA. The primers used were forward primer 24 bases and reverse primer 22 bases. Reaction conditions: 95° C., 10 seconds→40 cycles of 95° C., 5 seconds, 61° C., 30 seconds, and 72° C., 15 seconds→95° C., 1 min→55° C., 1 min→55° C., 10 seconds, after which increased by 0.5° C. to 95° C. for 10 seconds→preserved at 25° C.
The degree of demethylation in the presence or absence of the test compound was compared and the inhibitory activity was evaluated.

[2] = system: DU145 (prostate cancer cell); assay: Cancer cell proliferation suppressive action, DU145 (WST-1); format: cell-based; conditions: Homo sapiens, read-out: DU145 proliferation inhibitory activity (%)
Procedure: cell line used: DU145 (prostate cancer cell: Institute of Development, Aging and Cancer, Tohoku University, Cell Resource Center for Biomedical Research)
evaluation of scaffolding dependency growth suppressive action:
The cells were plated on a 96 well plate at 5×10^3 cells/well/90 μL, and cultured overnight. The test compound (10 μM) was added and, after culture for 48 hr, a 1:9 mixture of aqueous 1-methoxy-5-methylphenazinium methylsulfate (PMS) solution and 2-(4-iodophenyl)-3-(4-nitrophenyl)-5-(2,4-disulfophenyl)-2H-tetrazolium, monosodium salt (WST-1)/20 mM 4-(2-hydroxyethyl)-1-piperazineethanesulfonic acid (HEPES) solution (DOJIN) was added by 10 μL, and the absorbance was measured at 450 nm 2 hr later. As a control wavelength, 630 nm was used.

DU145 cell xenograft = assay: Antitumor action using prostate cancer xenograft model; format: in vivo, BALB/c nu/nu mouse; conditions: subcutaneously administered, suspended in 0.5 w/v % carboxycellulose; tumor volume
Description: A prostate cancer xenograft model was produced as shown below.
DU145 cells (4×10^6 cells) were mixed with BD Matrigel Basememt Membrane Matrix High Concentration (Becton, Dickinson and Company), and subcutaneously transplanted to the back of BALB/c nu/nu mouse. After transplantation, the tumor was isolated when it reached a volume of about 200 mm^3, and subcutaneously transplanted into the back of a different BALB/c nu/nu mouse. This operation was repeated three times to generate a tumor derived from DU145 cells that grow stably. A model mouse for the evaluation of the compound was prepared by finely cutting the in vivo passaged tumor into about 10 mm^3, and subcutaneously transplanting same into the back of a BALB/c nu/nu mouse.
The compound of Example 1 was suspended in 0.5 w/v % sterile carboxycellulose (Wako Pure Chemical Industries, Ltd.), and subcutaneously administered to the back. The volume of the tumor was calculated using the formula of (long diameter)×(short diameter)^2×0.5.

| SMILES | inhibition at 1 µM [1] [%] | inhibition at 10 µM [1] [%] | inhibition at 10 µM ([2]; DU-145, 48 h) [%] | inhibition at 10 µM ([2]; DU-145, test compound 10 μM, culture for 48 hr) [%] | antitumor action in a DU145 cell xenograft model (FIG. 1) (DU145 cell xenograft) |
| --- | --- | --- | --- | --- | --- |
| Cc1ccc(-c2ccc3[nH]c(-n4nc(C)c(Cc5ccccc5)c4O)nc3c2)cc1 [Example 40] | 21 | 61 | – | – | – |
| Cc1nn(-c2nc3ccccc3[nH]2)c(O)c1C [Example 13] | 19 | 76 | 22 | – | – |
| Cc1ccc2[nH]c(-n3nc(C)c(Cc4ccccc4Cl)c3O)nc2c1 [Example 33] | 54 | 82 | – | – | – |
| Cc1nn(-c2nc3ccccc3[nH]2)c(O)c1Cc1ccccc1 [Example 14] | 35 | 80 | 45 | – | – |
| Cc1nn(-c2nc3cc(C(F)(F)F)ccc3[nH]2)c(O)c1Cc1ccccc1 [Example 4, 3-methyl-4-(phenylmethyl)-1-(5-trifluoromethyl-1H-benzimidazol-2-yl)-1H-pyrazol-5-ol] | 50 | 82 | – | – | – |
| Cc1nn(-c2nc3ccccc3[nH]2)c(O)c1Cc1ccc2ccccc2c1 [Example 19] | 38 | 76 | – | – | – |
| COc1ccc(Cc2c(C)nn(-c3nc4ccccc4[nH]3)c2O)cc1 [Example 31] | 47 | 85 | – | – | – |
| Cc1ccc2[nH]c(-n3nc(C)c(CC4CCCCC4)c3O)nc2c1 [Example 46] | 47 | 81 | – | – | – |
| Cc1nn(-c2nc3cc(Cl)ccc3[nH]2)c(O)c1Cc1ccccc1 [Example 3, 1-(5-chloro-1H-benzimidazol-2-yl)-3-methyl-4-(phenylmethyl)-1H-pyrazol-5-ol] | 21 | 60 | – | – | – |
| Cc1cc(O)n(-c2nc3ccccc3[nH]2)n1 [Example 15] | -1 | 76 | – | – | – |
| Cc1ccc2[nH]c(-n3nc(C)c(Cc4ccc(F)cc4)c3O)nc2c1 [Example 32] | 49 | 81 | – | – | – |
| Cc1nn(-c2nc3ccccc3[nH]2)c(O)c1Cc1ccc(F)cc1 [Example 25] | 39 | 68 | – | – | – |
| Cc1nn(-c2nc3ccccc3[nH]2)c(O)c1Cc1ccc(C(F)(F)F)cc1 [Example 24] | 61 | 67 | – | – | – |
| Cc1ccc2[nH]c(-n3nc(C)c(Cc4ccccc4)c3O)nc2c1 [Example 1, 1-(5-methyl-1H-benzimidazol-2-yl)-3-methyl-4-(phenylmethyl)-1H-pyrazol-5-ol] | 24 | 81 | – | 60 | antitumor action |
| Cc1nn(-c2nc3cc(-c4ccccc4)ccc3[nH]2)c(O)c1Cc1ccccc1 [Example 37] | 38 | 64 | – | – | – |
| Cc1ccc2[nH]c(-n3nc(C)c(Cc4ccc5ccccc5c4)c3O)nc2c1 [Example 11, 3-methyl-1-(5-methyl-1H-benzimidazol-2-yl)-4-(2-naphthylmethyl)-1H-pyrazol-5-ol] | 36 | 82 | – | – | – |
| Cc1nn(-c2nc3ccccc3[nH]2)c(O)c1-c1ccccc1 [Example 18] | 27 | 74 | – | – | – |
| COc1ccc(Cc2c(C)nn(-c3nc4cc(C)ccc4[nH]3)c2O)cc1 [Example 34] | 49 | 80 | – | – | – |
| Cc1nn(-c2nc3cc(C(C)(C)C)ccc3[nH]2)c(O)c1Cc1ccccc1 [Example 5, 1-[5-(1,1-dimethylethyl)-1H-benzimidazol-2-yl]-3-methyl-4-(phenylmethyl)-1H-pyrazol-5-ol] | 50 | 91 | – | – | – |
| Cc1ccc2[nH]c(-n3nc(C)c(-c4ccccc4)c3O)nc2c1 [Example 42] | 37 | 65 | – | – | – |
| Cc1ccc2[nH]c(-n3nc(C)c(C)c3O)nc2c1 [Example 17] | 25 | 76 | – | – | – |
| CCCCCCc1c(C)nn(-c2nc3cc(C)ccc3[nH]2)c1O [Example 45] | 43 | 81 | – | – | – |
| Cc1nn(-c2nc3cc(-c4ccc(Cl)cc4)ccc3[nH]2)c(O)c1Cc1ccccc1 [Example 35] | 25 | 77 | – | – | – |
